US10266537B2, “3-acetylenyl-pyrazole-pyrimidine derivative, and preparation method therefor and uses thereof” (Si Chuan University, priority 2015, dated 2019)
Read-outs that look alike come from different tables or passages of the source. Each block holds one compound with its values, some of them ahead of it.

Legend:
B-Raf(V600E) = B-Raf(V600E) (Homo sapiens (Human), UniProt P15056, V600E); assay: Kinase inhibition assay (KinaseProfiler, 33P-ATP); conditions: ATP at Km
HCT116 = assay: Cell proliferation inhibition assay (MTT); assay type: cell-based; conditions: Homo sapiens, read-out: Proliferation inhibitory activity IC50
MV4-11 = assay: Cell proliferation inhibition assay (MTT); assay type: cell-based; conditions: Homo sapiens, read-out: Proliferation inhibitory activity IC50
JAK2 = JAK2 (Homo sapiens (Human), UniProt O60674); assay: Kinase inhibition assay (KinaseProfiler, 33P-ATP); assay type: biochemical
JAK2, sequence (O60674 whole entry): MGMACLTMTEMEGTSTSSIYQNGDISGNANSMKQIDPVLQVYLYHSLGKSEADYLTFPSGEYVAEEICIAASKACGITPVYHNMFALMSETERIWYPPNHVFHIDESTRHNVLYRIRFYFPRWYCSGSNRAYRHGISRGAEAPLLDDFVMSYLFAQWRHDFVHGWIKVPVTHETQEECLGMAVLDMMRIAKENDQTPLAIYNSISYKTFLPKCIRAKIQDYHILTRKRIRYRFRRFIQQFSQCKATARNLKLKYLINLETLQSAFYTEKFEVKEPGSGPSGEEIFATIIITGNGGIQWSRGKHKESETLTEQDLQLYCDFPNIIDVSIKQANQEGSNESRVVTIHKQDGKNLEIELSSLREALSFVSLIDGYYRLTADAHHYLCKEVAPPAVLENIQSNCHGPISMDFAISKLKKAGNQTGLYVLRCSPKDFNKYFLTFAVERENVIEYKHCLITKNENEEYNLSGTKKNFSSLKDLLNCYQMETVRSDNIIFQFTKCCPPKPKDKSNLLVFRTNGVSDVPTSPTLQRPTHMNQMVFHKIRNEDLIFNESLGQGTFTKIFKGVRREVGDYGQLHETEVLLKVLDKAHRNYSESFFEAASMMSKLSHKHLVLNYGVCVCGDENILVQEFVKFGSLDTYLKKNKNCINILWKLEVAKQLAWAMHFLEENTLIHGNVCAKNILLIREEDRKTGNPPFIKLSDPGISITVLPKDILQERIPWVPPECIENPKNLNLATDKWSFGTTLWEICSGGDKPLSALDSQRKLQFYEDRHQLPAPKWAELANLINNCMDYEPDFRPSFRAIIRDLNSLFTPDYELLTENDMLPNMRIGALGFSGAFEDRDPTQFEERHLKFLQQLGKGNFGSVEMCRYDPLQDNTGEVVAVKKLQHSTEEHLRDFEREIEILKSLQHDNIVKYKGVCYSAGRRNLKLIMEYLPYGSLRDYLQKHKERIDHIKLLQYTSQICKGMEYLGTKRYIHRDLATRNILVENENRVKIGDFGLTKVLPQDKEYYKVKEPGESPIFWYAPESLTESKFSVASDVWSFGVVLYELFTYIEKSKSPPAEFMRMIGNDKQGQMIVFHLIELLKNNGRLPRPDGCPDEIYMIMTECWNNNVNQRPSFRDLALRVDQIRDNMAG

CFPAC = assay: Cell proliferation inhibition assay (MTT); assay type: cell-based; conditions: Homo sapiens, read-out: Proliferation inhibitory activity IC50
MEK1(h) = MEK1(h) (Homo sapiens (Human), UniProt Q02750); assay: Kinase inhibition assay (KinaseProfiler, 33P-ATP); conditions: read-out: The percentage of the remaining active protein
MEK1(h), sequence (Q02750 whole entry): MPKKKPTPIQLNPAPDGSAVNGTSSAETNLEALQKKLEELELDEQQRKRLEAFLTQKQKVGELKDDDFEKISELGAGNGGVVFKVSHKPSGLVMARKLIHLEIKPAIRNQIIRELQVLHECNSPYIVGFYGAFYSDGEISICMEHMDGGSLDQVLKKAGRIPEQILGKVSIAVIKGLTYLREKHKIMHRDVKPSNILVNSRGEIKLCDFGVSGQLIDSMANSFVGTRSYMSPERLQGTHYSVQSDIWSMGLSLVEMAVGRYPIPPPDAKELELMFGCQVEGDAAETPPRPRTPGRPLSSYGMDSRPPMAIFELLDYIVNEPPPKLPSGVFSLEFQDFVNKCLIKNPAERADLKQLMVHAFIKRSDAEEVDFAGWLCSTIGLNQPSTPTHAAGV

TAK1 = TAK1 (Homo sapiens (Human), UniProt O43318); assay: Kinase inhibition assay (KinaseProfiler, 33P-ATP); assay type: biochemical; conditions: for remaining activity at 10 µM: TAK1(h), read-out: The percentage of the remaining active protein
TAK1, sequence (O43318 1-303): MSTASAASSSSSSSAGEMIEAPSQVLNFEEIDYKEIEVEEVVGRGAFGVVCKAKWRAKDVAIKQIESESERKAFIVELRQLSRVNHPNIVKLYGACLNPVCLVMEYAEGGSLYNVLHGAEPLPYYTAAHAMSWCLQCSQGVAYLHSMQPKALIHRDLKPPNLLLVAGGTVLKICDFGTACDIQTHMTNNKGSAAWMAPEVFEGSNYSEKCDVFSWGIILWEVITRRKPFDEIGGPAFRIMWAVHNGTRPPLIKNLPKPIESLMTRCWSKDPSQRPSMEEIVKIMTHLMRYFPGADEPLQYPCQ

EphA1(h) = EphA1(h) (Homo sapiens (Human), UniProt P21709); assay: Kinase inhibition assay (KinaseProfiler, 33P-ATP); assay type: biochemical; conditions: read-out: The percentage of the remaining active protein
EphA1(h), sequence (P21709 26-976): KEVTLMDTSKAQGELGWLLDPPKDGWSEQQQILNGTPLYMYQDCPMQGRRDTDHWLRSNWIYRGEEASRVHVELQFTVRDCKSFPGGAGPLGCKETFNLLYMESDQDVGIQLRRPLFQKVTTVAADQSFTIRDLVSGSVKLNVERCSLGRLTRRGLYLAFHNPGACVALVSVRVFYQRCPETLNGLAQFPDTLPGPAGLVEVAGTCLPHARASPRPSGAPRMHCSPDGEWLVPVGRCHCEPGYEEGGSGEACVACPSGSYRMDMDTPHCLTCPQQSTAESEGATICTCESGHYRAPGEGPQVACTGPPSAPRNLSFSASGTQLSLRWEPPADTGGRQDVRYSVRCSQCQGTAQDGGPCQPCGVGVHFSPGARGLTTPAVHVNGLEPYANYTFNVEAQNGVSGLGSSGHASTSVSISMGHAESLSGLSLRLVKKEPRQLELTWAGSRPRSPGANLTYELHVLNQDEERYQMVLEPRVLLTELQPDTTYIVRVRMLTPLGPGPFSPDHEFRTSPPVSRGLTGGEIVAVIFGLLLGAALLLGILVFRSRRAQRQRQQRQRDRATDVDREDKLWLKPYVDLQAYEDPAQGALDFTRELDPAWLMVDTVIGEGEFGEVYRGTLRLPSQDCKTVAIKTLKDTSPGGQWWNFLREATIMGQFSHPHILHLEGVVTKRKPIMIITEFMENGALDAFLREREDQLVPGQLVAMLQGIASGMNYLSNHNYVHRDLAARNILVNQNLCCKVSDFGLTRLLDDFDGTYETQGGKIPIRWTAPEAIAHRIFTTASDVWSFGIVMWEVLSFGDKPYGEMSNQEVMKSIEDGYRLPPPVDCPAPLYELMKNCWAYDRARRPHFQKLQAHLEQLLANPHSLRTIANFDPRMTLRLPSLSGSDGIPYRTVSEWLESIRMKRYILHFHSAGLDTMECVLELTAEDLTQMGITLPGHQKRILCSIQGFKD

Flt4 = Flt4 (Homo sapiens (Human), UniProt P35916); assay: Kinase inhibition assay (KinaseProfiler, 33P-ATP); assay type: biochemical; conditions: Flt4(h), read-out: The percentage of the remaining active protein
SNRK(h) = SNRK(h) (Homo sapiens (Human), UniProt Q9NRH2); assay: Kinase inhibition assay (KinaseProfiler, 33P-ATP); assay type: biochemical; conditions: read-out: The percentage of the remaining active protein
CHK2(h) = CHK2(h) (Homo sapiens (Human), UniProt O96017); assay: Kinase inhibition assay (KinaseProfiler, 33P-ATP); assay type: biochemical; conditions: read-out: The percentage of the remaining active protein
PDGFRα (D842V) = PDGFRα (D842V) (Homo sapiens (Human), UniProt P16234, D842V); assay: Kinase inhibition assay (KinaseProfiler, 33P-ATP); assay type: biochemical; conditions: PDGFRα(D842V)(h), read-out: The percentage of the remaining active protein
BRK = BRK (Homo sapiens (Human), UniProt Q13882); assay: Kinase inhibition assay (KinaseProfiler, 33P-ATP); assay type: biochemical; conditions: BRK(h), read-out: The percentage of the remaining active protein
BRK, sequence (Q13882 whole entry): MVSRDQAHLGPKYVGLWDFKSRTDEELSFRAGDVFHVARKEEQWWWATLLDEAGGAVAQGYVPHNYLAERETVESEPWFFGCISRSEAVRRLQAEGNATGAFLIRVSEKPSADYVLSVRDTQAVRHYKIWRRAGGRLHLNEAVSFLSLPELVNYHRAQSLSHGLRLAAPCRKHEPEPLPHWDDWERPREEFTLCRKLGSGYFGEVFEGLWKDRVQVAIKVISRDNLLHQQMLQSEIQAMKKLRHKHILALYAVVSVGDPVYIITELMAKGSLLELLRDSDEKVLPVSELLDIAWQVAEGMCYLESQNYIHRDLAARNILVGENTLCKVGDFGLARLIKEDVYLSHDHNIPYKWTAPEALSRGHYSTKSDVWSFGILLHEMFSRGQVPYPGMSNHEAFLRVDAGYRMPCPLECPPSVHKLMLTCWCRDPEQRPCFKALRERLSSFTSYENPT

Abl(T315I) = Abl(T315I) (Homo sapiens (Human), UniProt P00519, T315I); assay: Kinase inhibition assay (KinaseProfiler, 33P-ATP); assay type: biochemical; conditions: Abl(T315I)(h); 10 μM; read-out: The percentage of the remaining active protein
NEK7(h) = NEK7(h) (Homo sapiens (Human), UniProt Q8TDX7); assay: Kinase inhibition assay (KinaseProfiler, 33P-ATP); assay type: biochemical; conditions: read-out: The percentage of the remaining active protein
NEK7(h), sequence (Q8TDX7 whole entry): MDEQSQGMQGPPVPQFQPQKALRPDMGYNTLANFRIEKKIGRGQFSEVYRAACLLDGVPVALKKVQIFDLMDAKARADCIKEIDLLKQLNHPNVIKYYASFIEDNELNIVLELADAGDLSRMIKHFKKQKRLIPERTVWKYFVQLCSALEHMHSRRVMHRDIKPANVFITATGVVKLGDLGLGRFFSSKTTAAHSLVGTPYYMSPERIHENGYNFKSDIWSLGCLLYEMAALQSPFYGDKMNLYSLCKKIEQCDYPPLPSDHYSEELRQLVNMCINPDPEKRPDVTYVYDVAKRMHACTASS

[1] = target: PI3 Kinase (p110d/p85a)(h) (Homo sapiens (Human), UniProt O00329); assay: Kinase inhibition assay (KinaseProfiler, 33P-ATP); assay type: biochemical; conditions: read-out: The percentage of the remaining active protein
CK1(y) = assay: Kinase inhibition assay (KinaseProfiler, 33P-ATP); assay type: biochemical, yeast; conditions: 10 μM
Flt3(D835Y)(h) = Flt3(D835Y)(h) (Homo sapiens (Human), UniProt P36888, D835Y); assay: Kinase inhibition assay (KinaseProfiler, 33P-ATP); assay type: biochemical; conditions: read-out: The percentage of the remaining active protein
CLK4(h) = CLK4(h) (Homo sapiens (Human), UniProt Q9HAZ1); assay: Kinase inhibition assay (KinaseProfiler, 33P-ATP); assay type: biochemical; conditions: read-out: The percentage of the remaining active protein
Rse = Rse (Homo sapiens (Human), UniProt Q06418); assay: Kinase inhibition assay (KinaseProfiler, 33P-ATP); assay type: biochemical; conditions: Rse(h), read-out: The percentage of the remaining active protein
ROCK-II(r) = ROCK-II(r) (Rattus norvegicus (Rat), UniProt Q62868); assay: Kinase inhibition assay (KinaseProfiler, 33P-ATP); assay type: biochemical; conditions: read-out: The percentage of the remaining active protein
TLK2(h) = TLK2(h) (Homo sapiens (Human), UniProt Q86UE8); assay: Kinase inhibition assay (KinaseProfiler, 33P-ATP); assay type: biochemical; conditions: read-out: The percentage of the remaining active protein
Plk1(h) = Plk1(h) (Homo sapiens (Human), UniProt P53350); assay: Kinase inhibition assay (KinaseProfiler, 33P-ATP); assay type: biochemical; conditions: read-out: The percentage of the remaining active protein
NEK6(h) = NEK6(h) (Homo sapiens (Human), UniProt Q9HC98); assay: Kinase inhibition assay (KinaseProfiler, 33P-ATP); assay type: biochemical; conditions: read-out: The percentage of the remaining active protein
ROCK-II(h) = ROCK-II(h) (Homo sapiens (Human), UniProt O75116); assay: Kinase inhibition assay (KinaseProfiler, 33P-ATP); assay type: biochemical; conditions: read-out: The percentage of the remaining active protein
JNK2α2(h) = JNK2α2(h) (Homo sapiens (Human), UniProt P45984); assay: Kinase inhibition assay (KinaseProfiler, 33P-ATP); assay type: biochemical; conditions: read-out: The percentage of the remaining active protein
PrKX(h) = PrKX(h) (Homo sapiens (Human), UniProt P51817); assay: Kinase inhibition assay (KinaseProfiler, 33P-ATP); assay type: biochemical; conditions: read-out: The percentage of the remaining active protein
SRPK1(h) = SRPK1(h) (Homo sapiens (Human), UniProt Q96SB4); assay: Kinase inhibition assay (KinaseProfiler, 33P-ATP); assay type: biochemical; conditions: read-out: The percentage of the remaining active protein
EphA7 = EphA7 (Homo sapiens (Human), UniProt Q15375); assay: Kinase inhibition assay (KinaseProfiler, 33P-ATP); assay type: biochemical; conditions: EphA7(h), read-out: The percentage of the remaining active protein
PKCι(h) = PKCι(h) (Homo sapiens (Human), UniProt P41743); assay: Kinase inhibition assay (KinaseProfiler, 33P-ATP); assay type: biochemical; conditions: read-out: The percentage of the remaining active protein
PKBγ(h) = PKBγ(h) (Homo sapiens (Human), UniProt Q9Y243); assay: Kinase inhibition assay (KinaseProfiler, 33P-ATP); assay type: biochemical; conditions: read-out: The percentage of the remaining active protein
CLK3(h) = CLK3(h) (Homo sapiens (Human), UniProt P49761); assay: Kinase inhibition assay (KinaseProfiler, 33P-ATP); assay type: biochemical; conditions: read-out: The percentage of the remaining active protein
CLK3(h), sequence (P49761 whole entry): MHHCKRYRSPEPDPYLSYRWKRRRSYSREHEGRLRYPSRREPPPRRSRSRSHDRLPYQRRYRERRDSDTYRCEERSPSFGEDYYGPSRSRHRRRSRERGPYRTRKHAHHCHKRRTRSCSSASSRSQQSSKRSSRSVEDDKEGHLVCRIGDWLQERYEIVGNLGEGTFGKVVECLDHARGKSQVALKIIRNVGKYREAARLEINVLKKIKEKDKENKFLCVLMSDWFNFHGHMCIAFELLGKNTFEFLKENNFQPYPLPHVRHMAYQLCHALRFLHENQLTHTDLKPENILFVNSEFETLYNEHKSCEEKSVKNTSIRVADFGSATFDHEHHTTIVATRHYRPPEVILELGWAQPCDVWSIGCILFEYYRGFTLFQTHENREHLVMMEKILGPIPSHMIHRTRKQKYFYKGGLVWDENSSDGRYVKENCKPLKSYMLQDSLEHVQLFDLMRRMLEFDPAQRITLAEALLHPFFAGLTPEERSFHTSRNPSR

PKD2(h) = PKD2(h) (Homo sapiens (Human), UniProt Q9BZL6); assay: Kinase inhibition assay (KinaseProfiler, 33P-ATP); assay type: biochemical; conditions: read-out: The percentage of the remaining active protein
Lyn(m) = Lyn(m) (Mus musculus (Mouse), UniProt P25911); assay: Kinase inhibition assay (KinaseProfiler, 33P-ATP); assay type: biochemical; conditions: read-out: The percentage of the remaining active protein

B-Raf(V600E), sequence (P15056 whole entry V600E): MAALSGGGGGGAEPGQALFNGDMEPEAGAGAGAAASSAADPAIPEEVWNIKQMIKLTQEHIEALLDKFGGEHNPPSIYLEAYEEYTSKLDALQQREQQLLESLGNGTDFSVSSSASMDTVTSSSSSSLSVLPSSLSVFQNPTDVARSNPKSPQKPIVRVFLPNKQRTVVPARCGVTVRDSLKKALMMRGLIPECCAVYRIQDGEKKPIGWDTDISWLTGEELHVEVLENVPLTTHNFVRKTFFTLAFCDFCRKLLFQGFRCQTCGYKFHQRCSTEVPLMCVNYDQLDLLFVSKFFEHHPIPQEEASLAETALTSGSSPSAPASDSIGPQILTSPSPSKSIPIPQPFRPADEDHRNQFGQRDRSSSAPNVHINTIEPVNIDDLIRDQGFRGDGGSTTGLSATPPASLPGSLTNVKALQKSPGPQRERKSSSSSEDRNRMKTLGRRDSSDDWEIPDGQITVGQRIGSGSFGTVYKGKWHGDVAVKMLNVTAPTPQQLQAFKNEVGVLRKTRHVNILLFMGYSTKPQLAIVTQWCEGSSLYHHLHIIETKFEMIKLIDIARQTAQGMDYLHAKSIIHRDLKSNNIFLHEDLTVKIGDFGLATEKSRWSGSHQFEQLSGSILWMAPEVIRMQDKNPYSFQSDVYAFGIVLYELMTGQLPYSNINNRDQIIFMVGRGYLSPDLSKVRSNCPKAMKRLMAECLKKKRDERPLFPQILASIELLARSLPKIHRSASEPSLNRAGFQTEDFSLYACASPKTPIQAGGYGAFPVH

SMILES: CCn1nc(C#Cc2cc(C(=O)Nc3ccc(CN4CCN(C)CC4)c(C(F)(F)F)c3)ccc2C)c2c(N)ncnc21 [Compound 3]
IC50 (B-Raf(V600E)): 15 nM
IC50 (HCT116; HCT-116, 72 h): 178 nM
IC50 (MV4-11; MV4-11, 72 h): 20 nM
IC50 (JAK2; JAK2, ATP at Km): 2910 nM
IC50 (CFPAC; 72 h): 607 nM

IC50 (B-Raf(V600E)): 5 nM
remaining activity at 10 µM (MEK1(h)): 52%
IC50 (HCT116; HCT-116, HCT116, MTT, 72 hours): 230 nM
remaining activity at 10 µM (TAK1; compound at 10 μM): 2%
IC50 (TAK1; TAK1, ATP at Km): 203 nM
remaining activity at 10 µM (EphA1(h); compound at 10 μM): 1%
SMILES: Cc1ccc(NC(=O)c2cccc(C(F)(F)F)c2)cc1C#Cc1nn(C2CCN(C)CC2)c2ncnc(N)c12 [Compound 31]
IC50 (CFPAC; CFPAC, MTT, 72 hours): 472 nM

remaining activity at 10 µM (Flt4): 1%
remaining activity at 10 µM (SNRK(h)): 92%
remaining activity at 10 µM (CHK2(h)): 111%
remaining activity at 10 µM (PDGFRα (D842V)): 0%
remaining activity at 10 µM (BRK): -1%
remaining activity at 10 µM (Abl(T315I)): 1%
remaining activity at 10 µM (MEK1(h)): 34%
remaining activity at 10 µM (NEK7(h)): 98%
remaining activity at 10 µM [1]: 74%
The percentage of the remaining active protein (CK1(y)): 86%
remaining activity at 10 µM (Flt3(D835Y)(h)): 118%
remaining activity at 10 µM (CLK4(h)): 58%
remaining activity at 10 µM (Rse): 2%
remaining activity at 10 µM (ROCK-II(r)): 85%
remaining activity at 10 µM (TLK2(h)): 93%
remaining activity at 10 µM (Plk1(h)): 92%
remaining activity at 10 µM (NEK6(h)): 98%
remaining activity at 10 µM (ROCK-II(h)): 56%
IC50 (MV4-11; MV4-11, MTT, 72 hours): 138 nM
remaining activity at 10 µM (JNK2α2(h)): 13%
remaining activity at 10 µM (JAK2; JAK2(h), 10 μM, read-out: The percentage of the remaining active protein): 64%
remaining activity at 10 µM (PrKX(h)): 105%
remaining activity at 10 µM (SRPK1(h)): 106%
remaining activity at 10 µM (EphA7): 0%
remaining activity at 10 µM (PKCι(h)): 91%
remaining activity at 10 µM (PKBγ(h)): 94%
remaining activity at 10 µM (CLK3(h)): 83%
remaining activity at 10 µM (PKD2(h)): 108%
remaining activity at 10 µM (Lyn(m)): -1%
remaining activity at 10 µM (TAK1; 10 μM): 1%
remaining activity at 10 µM (EphA1(h); 10 μM): 1%
SMILES: Cc1ccc(NC(=O)c2ccc(C)c(C(F)(F)F)c2)cc1C#Cc1nn([C@H]2CC[C@H](O)CC2)c2ncnc(N)c12 [Compound 93]
